Laboratory results taken from patent US5733931A, “Cyclohexanediurea derivative and process for its production” (Nissin Food Products Co., Ltd., priority 1993, dated 1998).
pIC50: −log10 of the molar value.

What was measured:
[1] = system: ACAT enzyme of human CaCo2 cells; experiment: ACAT enzyme activity of human CaCo2 cells (microsome fractions); assay type: biochemical; details: Table 11, read-out: IC50, inhibitory effect on ACAT enzyme activity, human CaCo2
Description: (§1) ACAT enzyme activities of the microsomes were determined by the method of J. G. Heider (J. Lipid Res., 24, 1127-1134, 1983). A test sample dissolved in 1% dimethylsulfoxide was added to a microsome fraction (100 μg), a phosphoric acid buffer (0.154M) having pH 7.4, 1-^14 C-oleoyl CoA (36 μM), dithiosleitol (2 mM) and bovine blood serum albumin (36 μg/ml). The reaction mixture adjusted to a final capacity of 0.5 ml was incubated at 37° C. for 60 minutes. A mixture (6 ml) of chloroform and methanol (2:1) was added and the reaction was stopped. Cholesterol oleate was extracted with chloroform and separated by thin-layer chromatography. ACAT enzyme activities of the microsome fractions were determined by radiation measurement.
(§2) [2-2] ACAT enzyme activities of human HepG2 and CaCo2 cells
(§3) Human HepG2 and CaCo2 cells purchased from ATCC (AMERICAN TYPE CULTURE COLLECTION) were used in this test.
(§4) Using RPMI 1640 medium for HepG2 and DMEM medium for CaCo2, HepG2 and CaCo2 cells were cultured with 40 ml of each medium containing 10% bovine blood serum, 50 I.U. of penicillin and 50 μg/ml of streptomycin in a 5% CO2 incubator at 37° C. The cells were then monolayer-culturedwith 80 ml of each medium containing […] of cholesterol and 5 μg/ml of 25-0H cholesterol in a 175 cm flask for 5 hours. The homogenizes of these cells were subjected to centrifugation at 105,000 g to collect microsome fractions. ACAT enzyme activities of the microsome fractions were determined by the above-mentioned method.

[2] = target: ACAT enzyme of rabbit liver microsomes; experiment: Inhibitory effect on ACAT enzyme (No.2), rabbit liver microsomes; assay type: biochemical; details: pH 7.4, 37° C., 60 minutes, Table 10
Description: (§5) 2) Inhibitory effect on ACAT (Acyl-CoA: cholesterol acyltransferase) enzyme (No.2)
(§6) [2-1] ACAT enzyme activities of rabbit liver and small intestine mucosa microsomes
(§7) A white male rabbit was fed with a […] cholesterol-containing food for four weeks and bleeding-slaughtered to extract its liver and small intestine. Microsomes of the liver and small intestine mucosa were prepared by the method of C. Marco et al. (Biochim. Biophys. Acta, 617, 458-471, 1980).
as §1

[3] = target: ACAT (Acyl-CoA: cholesterol acyltransferase) enzyme of rabbit liver microsome; experiment: Inhibitory effect on ACAT enzyme (No.1), rabbit liver microsome; assay type: biochemical; details: Table 9
Description: 1) Inhibitory effect on ACAT (Acyl-CoA: cholesterol acyltransferase) enzyme (No.1)
Compounds of the invention were tested for their inhibitory effects on ACAT enzyme of rabbit liver microsome by the method of J. G. Heider (J. of Lipid Res., vol. 24, 1127-1134, 1983). More specifically, the test was done by measuring the amount of labelled cholesterol oleate ester produced from oleic acid CoA (coenzyme A) labelled by radiation.

serum cholesterol [4] = experiment: Serum cholesterol lowering effect in rat having high cholesterol [3-1]; assay type: in vivo, SD-type (Sprague-Dawley) male rat; details: oral, once a day for 5 days, dissolved in saline, Table 12
Description: 3) Cholesterol Lowering Effect
[3-1] Using a rat having high cholesterol, compounds of the invention were tested for their serum cholesterol lowering effects by the following method. A 6-week-old SD-type (Sprague-Dawley) male rat was fed with food containing 1% of cholesterol, 0.5% of cholic acid and 5% of olive oil for 2 days and then orally administered the food and a compound of the invention as dissolved in saline once a day for 5 days starting on day 3. Four hours after the final administration, a blood sample was taken. The total cholesterol in the serum of the test group was measured and compared with that of the control group.

[5] = target: T1, ACAT enzyme of rabbit small intestine mucosa microsomes (Oryctolagus cuniculus, UniProt G1SFD9); experiment: Inhibitory effect on ACAT enzyme (No.2), rabbit small intestine mucosa microsomes; assay type: biochemical; details: pH 7.4, 37° C., 60 minutes, Table 10
T1 construct: Microsomes of the liver and small intestine mucosa were prepared; from tissue; host or cells: small intestine mucosa microsomes of a cholesterol-fed white male rabbit
T1 sequence (G1SFD9 1-524): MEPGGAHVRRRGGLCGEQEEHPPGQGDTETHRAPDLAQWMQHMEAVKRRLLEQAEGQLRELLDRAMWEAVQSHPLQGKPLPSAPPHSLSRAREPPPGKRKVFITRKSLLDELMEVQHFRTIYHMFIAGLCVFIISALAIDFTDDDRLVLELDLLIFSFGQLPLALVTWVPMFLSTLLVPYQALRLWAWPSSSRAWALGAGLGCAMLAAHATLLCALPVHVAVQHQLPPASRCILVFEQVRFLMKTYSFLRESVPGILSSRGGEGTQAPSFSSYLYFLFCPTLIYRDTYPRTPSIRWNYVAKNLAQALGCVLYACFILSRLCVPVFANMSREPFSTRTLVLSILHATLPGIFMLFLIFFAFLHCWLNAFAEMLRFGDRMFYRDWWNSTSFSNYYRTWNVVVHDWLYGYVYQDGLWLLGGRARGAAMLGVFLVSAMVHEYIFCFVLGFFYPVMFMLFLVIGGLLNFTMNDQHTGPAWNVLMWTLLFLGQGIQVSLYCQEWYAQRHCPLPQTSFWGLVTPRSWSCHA
Description: as §5, §6, §7, §1

[6] = system: ACAT enzyme of human HepG2 cells; experiment: ACAT enzyme activity of human HepG2 cells (microsome fractions); assay type: biochemical; details: Table 11, read-out: IC50, inhibitory effect on ACAT enzyme activity, human HepG2
Description: as §1, §2, §3, §4

serum cholesterol [7] = experiment: Serum cholesterol lowering effect in rat having high cholesterol [3-2]; assay type: in vivo, SD-type (Sprague-Dawley) male rat; details: oral, once a day for the last 5 days, Tween 80 and saline suspension, Table 13
Description: [3-2] Using a rat having high cholesterol, compounds of the invention were tested for their serum cholesterol lowering effects by the following method. A 6-week-old SD-type (Sprague-Dawley) male rat was fed with food containing 1% of cholesterol, 0.5% of cholic acid and 5% of olive oil for 7 days. For the last 5 days, a test sample suspended in some drops of Tween 80 and saline was orally administered once a day. Four hours after the final administration, a blood sample was taken from celiac aorta of the rat under etherization. The total cholesterol in the serum of the test group was measured by the oxygen method and compared with that of the control group.

| pIC50 [1] | pIC50 [2] | pIC50 [3] | pIC50 [5] | pIC50 [6] | SMILES | Cholesterol lowering effect, % (serum total cholesterol vs control group) (serum cholesterol [4]; 3 mg/kg) [%] | Cholesterol lowering effect, % (serum total cholesterol vs control group) (serum cholesterol [4]; 10 mg/kg) [%] | Cholesterol lowering effect, % (serum total cholesterol vs control group) (serum cholesterol [7]; 1 mg/kg) [%] | Cholesterol lowering effect, % (serum total cholesterol vs control group) (serum cholesterol [7]; 3 mg/kg) [%] |
| --- | --- | --- | --- | --- | --- | --- | --- | --- | --- |
| 9.28 | 7.38 | 7.60 | 7.52 | 8.92 | CC1CCC(N(C[C@H]2CC[C@H](CN(C(=O)Nc3ccc(N(C)C)cc3)C3CCC(C)CC3)CC2)C(=O)Nc2ccc(N(C)C)cc2)CC1 (relative stereo) [Example 28, Trans-1,4-bis[[3-(4-dimethylaminophenyl)-1-(4-methylcyclohexyl)ureido]methyl]cyclohexane] | 106 | 100 | 70.2 | 106.5 |
| 9.66 | 7.08 |  | 7.74 | 9.49 | CN(C)c1ccc(NC(=O)N(C[C@H]2CC[C@H](CN(C(=O)Nc3ccc(N(C)C)cc3)C3CCCCCC3)CC2)C2CCCCCC2)cc1 [Example 22, Trans-1,4-bis[[1-cycloheptyl-3-(4-dimethyaminophenyl)ureido]methyl]cyclohexane] |  |  | 77.6 | 97.2 |
